# Test results as given in patent publication US10392368B2, “Pyrazolo and triazolo bicyclic compounds as JAK kinase inhibitors” (THERAVANCE BIOPHARMA R&D IP, LLC, priority 2017, dated 2019).
# Like-named read-outs stand apart in the source and are kept apart here.
# How the values were obtained:
# Tyk2 = molecular target: T1, Tyk2 (Homo sapiens, UniProt P29597); experiment: Biochemical Tyk2 kinase assay (LanthaScreen); details: for Ki: read-out: Tyk 2 (pKi) (converted)
# T1 construct: GST; purchased Life Technologies
# In short: (§1)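 GST-tagged JAK enzyme and GFP-STAT1 peptide preincubated with compound 1 h, then ATP added; 1 h kinase reaction at ambient temperature, pH 7.5 HEPES/MgCl2 buffer, 1% DMSO. Tb-anti-pSTAT1 (pTyr701) TR-FRET, 520/495 nm ratio; IC50 from 4-parameter fit, converted to pKi via Cheng-Prusoff.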
# JAK1 = molecular target: T2, JAK1 (Homo sapiens, UniProt P23458); experiment: Biochemical JAK1 kinase assay (LanthaScreen); details: for Ki: read-out: JAK 1 (pKi) (converted)
# T2 construct: GST; purchased Life Technologies
# In short: as §1
# JAK2 = molecular target: T3, JAK2 (Homo sapiens, UniProt O60674); experiment: Biochemical JAK2 kinase assay (LanthaScreen); details: for Ki: read-out: JAK 2 (pKi) (converted)
# T3 construct: GST; purchased Life Technologies
# In short: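 GST-tagged recombinant JAK2 pre-incubated 1 h at ambient temperature with compound and GFP-STAT1 peptide in HEPES pH 7.5/MgCl2 buffer, then ATP added for a 1 h reaction with 1% DMSO. TR-FRET read after EDTA and Tb-anti-pSTAT1 (pTyr701) addition; IC50 from 4-parameter fit, converted to pKi by Cheng-Prusoff.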
# [1] = test system: IL-2 stimulated pSTAT5 in Tall-1 T cells; experiment: Cellular JAK3 potency assay: inhibition of IL-2 stimulated pSTAT5 in Tall-1 T cells; type: cell-based, human; details: for IC50: Homo sapiens, read-out: Tall-1 (pIC50) (converted)
# In short: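 In human Tall-1 T cells, IL-2 (300 ng/ml final, 30 min) drives STAT5 phosphorylation after a 1 h compound pretreatment. Lysates are assayed for pSTAT5 by AlphaLisa, and IC50 derived from signal versus concentration is expressed as pIC50.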
# JAK3 = molecular target: T4, JAK3 (Homo sapiens, UniProt P52333); experiment: Biochemical JAK3 kinase assay (LanthaScreen); design: GST; purchased Life Technologies; details: for Ki: read-out: JAK 3 (pKi) (converted)
# T4 sequence (P52333 1-1124): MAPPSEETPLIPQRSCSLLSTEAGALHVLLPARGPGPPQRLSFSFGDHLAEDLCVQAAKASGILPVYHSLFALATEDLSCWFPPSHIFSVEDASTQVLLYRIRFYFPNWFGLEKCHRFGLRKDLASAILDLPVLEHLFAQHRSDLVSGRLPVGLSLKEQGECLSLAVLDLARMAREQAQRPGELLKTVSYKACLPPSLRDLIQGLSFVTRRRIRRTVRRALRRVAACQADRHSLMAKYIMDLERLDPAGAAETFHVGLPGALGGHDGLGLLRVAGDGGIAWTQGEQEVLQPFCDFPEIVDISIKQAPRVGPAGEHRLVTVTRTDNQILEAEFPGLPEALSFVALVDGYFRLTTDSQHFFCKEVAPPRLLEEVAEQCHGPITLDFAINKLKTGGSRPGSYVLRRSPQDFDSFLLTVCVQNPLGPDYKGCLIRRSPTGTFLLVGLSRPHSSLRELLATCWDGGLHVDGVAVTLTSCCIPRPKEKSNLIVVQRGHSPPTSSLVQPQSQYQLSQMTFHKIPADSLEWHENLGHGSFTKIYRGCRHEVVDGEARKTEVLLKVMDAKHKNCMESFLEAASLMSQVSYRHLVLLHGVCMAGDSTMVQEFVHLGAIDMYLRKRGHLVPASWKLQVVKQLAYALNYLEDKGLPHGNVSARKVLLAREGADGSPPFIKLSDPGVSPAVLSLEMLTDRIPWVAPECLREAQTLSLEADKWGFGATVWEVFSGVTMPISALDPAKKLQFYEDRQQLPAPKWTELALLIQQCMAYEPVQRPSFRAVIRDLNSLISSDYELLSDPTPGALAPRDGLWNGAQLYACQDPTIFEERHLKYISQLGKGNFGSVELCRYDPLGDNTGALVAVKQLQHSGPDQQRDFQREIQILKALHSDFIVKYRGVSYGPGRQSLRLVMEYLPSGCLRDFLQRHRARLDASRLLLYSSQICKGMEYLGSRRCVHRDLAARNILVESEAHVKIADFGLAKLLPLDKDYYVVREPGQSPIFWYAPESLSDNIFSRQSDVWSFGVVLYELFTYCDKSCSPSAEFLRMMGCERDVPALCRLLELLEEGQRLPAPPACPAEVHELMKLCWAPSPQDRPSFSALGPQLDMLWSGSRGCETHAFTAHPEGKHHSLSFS
# In short: as §1
# [2] = IL-2 stimulated pSTAT5, Tall-1 T cells
# [3] = selectivity JAK3 over JAK1, difference of pKi
# [4] = TALL-1, IL-2 stimulated pSTAT5 in Tall-1 T cells
# [5] = selectivity: difference of pKi JAK3 and pKi JAK1
# [6] = IL-2 stimulated pSTAT5 in Tall-1 T cells
# [7] = TALL-1, IL-2 stimulated pSTAT5, Tall-1 T cells
# T2 sequence (P23458 whole entry): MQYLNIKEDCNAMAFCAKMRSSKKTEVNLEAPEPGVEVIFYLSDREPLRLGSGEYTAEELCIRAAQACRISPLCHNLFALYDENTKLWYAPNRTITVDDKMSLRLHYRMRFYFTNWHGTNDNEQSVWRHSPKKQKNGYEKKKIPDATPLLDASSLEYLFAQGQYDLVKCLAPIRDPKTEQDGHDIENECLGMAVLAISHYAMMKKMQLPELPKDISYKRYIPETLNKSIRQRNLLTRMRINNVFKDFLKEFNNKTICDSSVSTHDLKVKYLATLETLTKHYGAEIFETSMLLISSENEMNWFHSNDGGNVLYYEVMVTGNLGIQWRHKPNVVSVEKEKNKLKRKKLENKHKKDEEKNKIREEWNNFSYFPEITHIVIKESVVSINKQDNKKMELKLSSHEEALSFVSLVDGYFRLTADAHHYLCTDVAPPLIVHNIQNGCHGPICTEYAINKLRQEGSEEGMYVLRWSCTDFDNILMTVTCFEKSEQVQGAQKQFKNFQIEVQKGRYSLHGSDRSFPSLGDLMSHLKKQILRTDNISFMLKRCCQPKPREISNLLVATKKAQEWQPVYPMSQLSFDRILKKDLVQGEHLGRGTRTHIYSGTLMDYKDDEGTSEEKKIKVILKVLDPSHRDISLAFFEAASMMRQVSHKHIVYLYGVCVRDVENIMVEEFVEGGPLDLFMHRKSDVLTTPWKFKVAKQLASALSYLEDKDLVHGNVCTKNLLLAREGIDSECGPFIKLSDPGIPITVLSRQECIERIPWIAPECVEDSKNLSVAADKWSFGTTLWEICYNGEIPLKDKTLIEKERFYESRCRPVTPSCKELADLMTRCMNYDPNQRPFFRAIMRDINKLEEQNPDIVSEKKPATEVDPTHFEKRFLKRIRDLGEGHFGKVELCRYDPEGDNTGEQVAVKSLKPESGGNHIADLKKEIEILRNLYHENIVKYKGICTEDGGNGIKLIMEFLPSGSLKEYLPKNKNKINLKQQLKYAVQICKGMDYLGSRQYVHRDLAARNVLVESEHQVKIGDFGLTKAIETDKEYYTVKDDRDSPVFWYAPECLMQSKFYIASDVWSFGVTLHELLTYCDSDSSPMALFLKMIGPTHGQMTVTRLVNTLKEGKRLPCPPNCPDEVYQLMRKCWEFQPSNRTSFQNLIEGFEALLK
# T3 sequence (O60674 whole entry): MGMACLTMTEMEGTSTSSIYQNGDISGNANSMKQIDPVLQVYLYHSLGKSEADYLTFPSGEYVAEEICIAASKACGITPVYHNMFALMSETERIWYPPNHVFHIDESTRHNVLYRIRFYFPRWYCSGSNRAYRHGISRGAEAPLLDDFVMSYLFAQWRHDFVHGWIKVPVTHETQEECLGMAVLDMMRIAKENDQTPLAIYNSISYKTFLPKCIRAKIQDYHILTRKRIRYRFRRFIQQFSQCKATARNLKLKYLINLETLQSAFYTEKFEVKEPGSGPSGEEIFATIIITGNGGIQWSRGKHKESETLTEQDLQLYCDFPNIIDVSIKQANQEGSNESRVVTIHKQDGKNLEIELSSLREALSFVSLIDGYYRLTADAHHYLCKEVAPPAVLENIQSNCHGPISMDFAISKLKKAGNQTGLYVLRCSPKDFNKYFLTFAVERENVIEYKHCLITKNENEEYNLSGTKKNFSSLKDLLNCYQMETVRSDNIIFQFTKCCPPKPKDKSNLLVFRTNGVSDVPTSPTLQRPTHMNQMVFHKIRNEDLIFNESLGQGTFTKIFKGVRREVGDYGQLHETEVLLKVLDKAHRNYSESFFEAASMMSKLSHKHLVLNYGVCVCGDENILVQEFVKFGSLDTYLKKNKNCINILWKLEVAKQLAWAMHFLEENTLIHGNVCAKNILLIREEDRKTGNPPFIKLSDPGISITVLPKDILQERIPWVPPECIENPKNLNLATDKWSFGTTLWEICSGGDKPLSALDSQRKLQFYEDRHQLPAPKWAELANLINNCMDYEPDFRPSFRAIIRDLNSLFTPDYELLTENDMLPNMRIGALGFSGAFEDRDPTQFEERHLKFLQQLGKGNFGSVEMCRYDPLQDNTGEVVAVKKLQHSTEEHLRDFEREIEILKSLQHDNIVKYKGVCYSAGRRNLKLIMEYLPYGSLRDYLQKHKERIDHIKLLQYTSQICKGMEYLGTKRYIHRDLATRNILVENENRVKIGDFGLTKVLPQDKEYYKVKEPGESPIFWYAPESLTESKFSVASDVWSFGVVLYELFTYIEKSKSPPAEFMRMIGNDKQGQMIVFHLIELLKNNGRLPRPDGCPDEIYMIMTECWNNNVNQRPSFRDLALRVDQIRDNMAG
# T1 sequence (P29597 whole entry): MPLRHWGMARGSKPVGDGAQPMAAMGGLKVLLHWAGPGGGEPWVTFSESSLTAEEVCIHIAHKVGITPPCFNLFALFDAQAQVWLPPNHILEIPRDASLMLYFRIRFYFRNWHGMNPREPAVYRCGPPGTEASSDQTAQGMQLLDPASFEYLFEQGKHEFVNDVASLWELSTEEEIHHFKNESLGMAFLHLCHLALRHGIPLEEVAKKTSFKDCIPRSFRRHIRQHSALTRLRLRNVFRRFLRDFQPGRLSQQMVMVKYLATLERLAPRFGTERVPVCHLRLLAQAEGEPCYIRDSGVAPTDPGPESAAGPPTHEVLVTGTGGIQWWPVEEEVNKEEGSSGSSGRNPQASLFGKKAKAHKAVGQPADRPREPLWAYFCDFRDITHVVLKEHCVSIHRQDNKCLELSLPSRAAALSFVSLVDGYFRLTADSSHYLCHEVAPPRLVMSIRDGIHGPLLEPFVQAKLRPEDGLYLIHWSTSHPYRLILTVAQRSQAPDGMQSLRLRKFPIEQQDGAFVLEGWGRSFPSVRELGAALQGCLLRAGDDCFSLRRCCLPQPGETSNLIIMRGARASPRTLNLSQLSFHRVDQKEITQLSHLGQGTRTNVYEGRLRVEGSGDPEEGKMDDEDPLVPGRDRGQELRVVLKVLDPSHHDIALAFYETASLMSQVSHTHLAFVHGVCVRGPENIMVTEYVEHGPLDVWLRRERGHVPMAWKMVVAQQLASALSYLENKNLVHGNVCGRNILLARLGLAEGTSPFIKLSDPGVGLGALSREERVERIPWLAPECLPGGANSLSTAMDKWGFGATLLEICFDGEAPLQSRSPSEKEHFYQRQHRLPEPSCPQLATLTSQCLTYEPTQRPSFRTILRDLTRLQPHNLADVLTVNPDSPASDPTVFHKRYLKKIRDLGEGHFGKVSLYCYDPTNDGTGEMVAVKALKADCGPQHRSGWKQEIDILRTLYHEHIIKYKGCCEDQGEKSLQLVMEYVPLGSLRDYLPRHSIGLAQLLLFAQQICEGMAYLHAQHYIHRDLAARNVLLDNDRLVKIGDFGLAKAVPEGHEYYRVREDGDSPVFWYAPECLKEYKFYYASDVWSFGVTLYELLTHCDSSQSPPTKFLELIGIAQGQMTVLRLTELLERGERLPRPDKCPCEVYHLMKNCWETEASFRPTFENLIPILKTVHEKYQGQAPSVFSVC
Compound,Tyk 2 (pKi) (Tyk2),JAK 1 (pKi) (JAK1),JAK 2 (pKi) (JAK2),"Tall-1 (pIC50) [1, 2]",JAK 3 (pKi) (JAK3),JAK3 (pKi)-JAK1 (pKi) (JAK3; [3]),Ki (Tyk2) [µM],Ki (JAK1) [µM],Ki (JAK2) [µM],"IC50 [1, 4] [µM]",Ki (JAK3) [µM],JAK3 (pKi)-JAK1 (pKi) (JAK3; [5]),"Tall-1 (pIC50) [1, 6]","IC50 [1, 7] [µM]"
C=CC(=O)N1CCCC(Oc2cc(-c3ccc(O)c(Cl)c3)cc3[nH]ncc23)C1 (stereo not drawn) [Compound 8-3],E (a pKi value of 7 or below (Ki of 100 nM or above)),E (a pKi value of 7 or below (Ki of 100 nM or above)),D (a pKi value between 7 and 8 (Ki between 100 nM and 10 nM)),A (a pIC50 value≥7.5 (IC50≤32 nM)),B (a pKi value between 9 and 10 (Ki between 1 nM and 0.1 nM)),A (a value of 3 or above),–,–,–,–,–,–,–,–
C=CC(=O)N1CC(C#N)(COc2nc(-c3ccc(O)c(F)c3)nc3[nH]ncc23)C1 [Compound 3-110],–,–,–,–,–,–,> 0.1,> 0.1,> 0.1,0.0316 to 0.2,0.0001 to 0.001,A (a value of 3 or above),–,–
C=CC(=O)N1CCC[C@H](Oc2nc(-c3ccc(O)c(F)c3)cc3[nH]ncc23)C1 [Compound 8-11],E (a pKi value of 7 or below (Ki of 100 nM or above)),D (a pKi value between 7 and 8 (Ki between 100 nM and 10 nM)),D (a pKi value between 7 and 8 (Ki between 100 nM and 10 nM)),A (a pIC50 value≥7.5 (IC50≤32 nM)),A (a pKi value≥10 (Ki≤0.1 nM)),B (a value of 2.3 to 3),–,–,–,–,–,–,–,–
CN(C)C/C=C/C(=O)N1CCC(C)(Nc2cc(-c3ccc(O)c(Cl)c3)cc3[nH]ncc23)CC1 [Compound 7-8],E (a pKi value of 7 or below (Ki of 100 nM or above)),E (a pKi value of 7 or below (Ki of 100 nM or above)),E (a pKi value of 7 or below (Ki of 100 nM or above)),B (a pIC50 value between 6.7 (included) and 7.5 (IC50 between 200 nM and 32 nM)),A (a pKi value≥10 (Ki≤0.1 nM)),A (a value of 3 or above),–,–,–,–,–,–,–,–
C=CC(=O)N1CC(CSc2cc(-c3ccc(O)cc3)nc3[nH]ncc23)C1 [Compound 13-9],E (a pKi value of 7 or below (Ki of 100 nM or above)),E (a pKi value of 7 or below (Ki of 100 nM or above)),E (a pKi value of 7 or below (Ki of 100 nM or above)),B (a pIC50 value between 6.7 (included) and 7.5 (IC50 between 200 nM and 32 nM)),B (a pKi value between 9 and 10 (Ki between 1 nM and 0.1 nM)),A (a value of 3 or above),–,–,–,–,–,–,–,–
C=CC(=O)N1C[C@@H](Oc2cc(-c3ccc(O)cc3)nc3[nH]ncc23)C[C@H]1C [Compound 1-26],–,–,–,–,–,–,> 0.1,> 0.1,> 0.1,0.0316 to 0.2,< 0.0001,A (a value of 3 or above),–,–
C=CC(=O)N1CC(CC)(COc2cc(-c3ccc(O)c(Cl)c3)nc3[nH]ncc23)C1 [Compound 3-69],E (a pKi value of 7 or below (Ki of 100 nM or above)),E (a pKi value of 7 or below (Ki of 100 nM or above)),E (a pKi value of 7 or below (Ki of 100 nM or above)),–,A (a pKi value≥10 (Ki≤0.1 nM)),–,–,–,–,–,–,A (a value of 3 or above),B (a pIC50 value between 6.7 (included) and 7.5 (IC50 between 200 nM and 32 nM)),–
C=CC(=O)N1CC[C@H](Oc2cc(-c3ccc(O)c(F)c3Cl)cc3[nH]ncc23)C1 [Compound 1-15],–,–,–,–,–,–,> 0.1,> 0.1,> 0.1,0.0316 to 0.2,< 0.0001,A (a value of 3 or above),–,–
C=CC(=O)N1C2CCC1CC(Oc1cc(-c3ccc(O)c(F)c3)cc3[nH]ncc13)C2 (stereo not drawn) [Compound 9-4],E (a pKi value of 7 or below (Ki of 100 nM or above)),E (a pKi value of 7 or below (Ki of 100 nM or above)),C (a pKi value between 8 and 9 (Ki between 10 nM and 1 nM)),A (a pIC50 value≥7.5 (IC50≤32 nM)),A (a pKi value≥10 (Ki≤0.1 nM)),A (a value of 3 or above),–,–,–,–,–,–,–,–
CN(C)C/C=C/C(=O)N1CCC(C)(Oc2cc(-c3ccc(O)c(F)c3)cc3[nH]ncc23)CC1 [Compound 6-6],–,–,–,–,–,A (a value of 3 or above),> 0.1,> 0.1,0.01 to 0.1,–,0.0001 to 0.001,–,–,< 0.0316
C=CC(=O)N1CC(C)(CNc2cc(-c3ccc(O)cc3)cc3[nH]ncc23)C1 [Compound 4-2],E (a pKi value of 7 or below (Ki of 100 nM or above)),D (a pKi value between 7 and 8 (Ki between 100 nM and 10 nM)),D (a pKi value between 7 and 8 (Ki between 100 nM and 10 nM)),–,B (a pKi value between 9 and 10 (Ki between 1 nM and 0.1 nM)),–,–,–,–,–,–,B (a value of 2.3 to 3),B (a pIC50 value between 6.7 (included) and 7.5 (IC50 between 200 nM and 32 nM)),–
CC(C)CN(C)C/C=C/C(=O)N1CC(COc2cc(-c3ccc(O)cc3)cc3[nH]ncc23)C1 [Compound 3-118],–,–,–,–,–,–,> 0.1,> 0.1,> 0.1,< 0.0316,0.0001 to 0.001,A (a value of 3 or above),–,–
C=CC(=O)N1CC(C#N)(COc2cc(-c3ccc(O)cc3)cc3[nH]ncc23)C1 [Compound 3-20],E (a pKi value of 7 or below (Ki of 100 nM or above)),E (a pKi value of 7 or below (Ki of 100 nM or above)),D (a pKi value between 7 and 8 (Ki between 100 nM and 10 nM)),–,B (a pKi value between 9 and 10 (Ki between 1 nM and 0.1 nM)),–,–,–,–,–,–,B (a value of 2.3 to 3),B (a pIC50 value between 6.7 (included) and 7.5 (IC50 between 200 nM and 32 nM)),–
C=CC(=O)N1CCC(Oc2cc(-c3ccc(O)c(Cl)c3)nc3[nH]ncc23)CC1 [Compound 6-17],–,–,–,–,–,A (a value of 3 or above),> 0.1,> 0.1,> 0.1,–,< 0.0001,–,–,0.0316 to 0.2
